Assays:
[1] = Clinical cohort: inflammatory markers and cytokines in peripheral blood and CSF of HIV patients on lenalidomide; assay type: in vivo, human
Description: HIV patients with CM after antiretroviral therapy (ART) were recruited. […] Lenalidomide (25 mg) was orally administered at days 1 to 21 in a 28-day cycle, and ART was continued for 48 weeks. The participants were followed up at 7 points (base line 0w, 4w, 8w, 12w, 24w, 36w, and 48w). Inflammatory cytokines in CSF and peripheral blood were detected at each follow-up point, and PBMCs were extracted from the patients and detected for indicators of HIV reservoir.

HIV reservoir = test: Clinical cohort: indicators of HIV reservoir (CA HIV RNA) in PBMCs extracted from patients; assay type: in vivo, human
Description: HIV patients with CM after antiretroviral therapy (ART) were recruited. These participants had central damage after receiving standard anti-fungal therapy, elevated cerebrospinal fluid (CSF) protein level, age of 18 years or more, and plasma HIV RNA of <50 copies/ml and CD4 T cell count of >100 cells/mm3 after receiving ART for at least 48 weeks. Lenalidomide (25 mg) was orally administered at days 1 to 21 in a 28-day cycle, and ART was continued for 48 weeks. The participants were followed up at 7 points (base line 0w, 4w, 8w, 12w, 24w, 36w, and 48w). Inflammatory cytokines in CSF and peripheral blood were detected at each follow-up point, and PBMCs were extracted from the patients and detected for indicators of HIV reservoir. […] For CA HIV-RNA, lenalidomide has a great influence. […] The subjects Nos. 110 and 113 have a decline that exceeds 2 log order of magnitude.

U1 cells = test: CCK8 survival rate of U1 cells; assay type: cell-based; details: lenalidomide 0.5, 1, 2, 5, 10, and 20 μmol/L, 24 hrs
Description: CCK8 was used to evaluate the safety of lenalidomide when U1 cells were treated with it in vitro. After U1 cells were treated with various concentrations of lenalidomide (0.5, 1, 2, 5, 10, and 20 μmol/L) for 24 hrs, the survival rate of U1 cells was detected by CCK8 kit. […] There is no significant difference between the control group and various concentration groups and between the various concentration groups. Lenalidomide has a high safety when acting on latent cell lines in vitro.

latent HIV cell line U1 = test: P24 ELISA in supernatant of U1 cells stimulated with latent activator; assay type: cell-based; details: pretreated 1, 2, and 5 μmol/L lenalidomide 24 hrs
Description: U1 cells were pretreated with various concentrations of lenalidomide (1, 2, and 5 μmol/L) for 24 hrs, and then the U1 cells pre-treated with lenalidomide were stimulated with a latent activator (TNF-a, PMA, or LPS). The U1 cells in the negative control group were cultured alone, and the U1 cells in the positive control group were not pretreated with lenalidomide. The activation of P24 protein in the supernatant of latent cells U1 was detected by ELISA. […] Compared with the positive control group, the P24 contents decline in the supernatants of the three experimental groups pretreated with 1, 2, and 5 μmol/L lenalidomide, and the difference is statistically significant (P=0.0029, 0.0019, and 0.0017, B in FIG. 3). The difference between various concentrations of lenalidomide groups is not obvious. (2) In the experiment where TNF-α of 20 μg/ml is used as the latent activator, similar results are observed. […] (3) The study of endotoxin (LPS, 10 μg/ml) as a latent activator is rare.

[2] = system: HIV-1 latent cell line U1; test: Viral mRNA expression in U1 cells activated with LPS; assay type: cell-based; details: lenalidomide 2 μmol/L pretreatment 24 hrs
Description: After the HIV-1 latent cell line is activated by activator, the expression of viral mRNA in the cells is increased, causing the production of virions. […] The U1 cells were divided into three groups. The negative control group was added with the same amount of culture medium. In the positive control group, cells were pretreated with the culture medium, and LPS was added as an activator after 24 hrs. In the experimental group, lenalidomide (2 μmol/L) was added to pretreat the cells for 24 hrs and then LPS was added to activate the cells. […] (2) The expression levels of multi-spliced RNA, single-spliced RNA and non-spliced RNA in U1 were also detected.

[3] = system: HIV-1 primary cell CD8-PBMCs; test: Virus reactivation in HIV-1 primary cells CD8-PBMCs (intracellular P24 by flow cytometry, CA HIV RNA by RT-PCR); assay type: cell-based, human
Description: Lenalidomide is confirmed to inhibit the transcription of virus in HIV-1 latent cell line, and whether it has the same effect in HIV primary cells is unknown. CD8-PBMCs were divided into an experimental group and a positive control group and treated with or without lenalidomide for 5 days. Both groups were supplemented with LPS irregularly. In the negative control group, the same amount of DMSO was added for control culture throughout the whole process. After 5 days, the cells were broken, and the difference in expression of intracellular P24 protein in CD8-PBMCs was detected by flow cytometry. As shown in A in FIG. 5, in the positive control group, the intracellular HIV-1 core P24 in CD8-PBMCs reaches 9.76% after the continuous action of activator. […] The differences in the expression of CA HIV RNA in the five samples were also detected.

[4] = system: PBMCs derived from HIV-1 patients; test: Cytokines in supernatant of PBMCs from HIV-1 patients (cytometric bead array); assay type: cell-based, human; details: PBMCs co-cultured with lenalidomide 24 hrs vs control group
Description: The in-vitro regulatory effect of lenalidomide was verified as follows. PBMCs were separated from peripheral blood donated by HIV-1 patients, and divided into a control group and an experimental group. The control group was cultured alone, and the experimental group was co-cultured with lenalidomide. After 24 hrs, the supernatant was taken for cytokine detection. The level of cytokines in the supernatant was measured by a cytometric bead array kit.

J-lat10.6 cells = test: GFP activation of J-lat10.6 cells by supernatant of PBMCs treated with lenalidomide; assay type: cell-based; details: supernatant added with lenalidomide; control supernatant activates GFP by 51.7%
Text: (§1) Lenalidomide has a powerful immunomodulatory effect, and can inhibit the release of pro-inflammatory cytokines in PBMCs derived from HIV patients in vitro and promote the secretion of anti-inflammatory cytokine IL-10. However, whether this degree of immunomodulation can inhibit HIV replication was not confirmed. The latent cell lines J-lat10.6 and C11 cells were used for the experiment. The supernatants of the experimental group and control group were used to stimulate J-lat10.6 and C11 cells, respectively. […] Lenalidomide can regulate the release of inflammatory cytokines in PBMCs from HIV-1 patients in vitro, and this bypass pathway can inhibit virus reactivation in HIV-1 latent cell lines.

C11 cells = test: GFP activation of C11 cells by supernatant of PBMCs treated with lenalidomide; assay type: cell-based; details: supernatant of lenalidomide group; control group 23.17%
Text: as §1

[5] = peripheral blood, after lenalidomide treatment

In the case of `Nc1cccc2c1CN(C1CCC(=O)NC1=O)C2=O` (stereo not drawn) [lenalidomide], the “IL-6 level in CSF” value ([1]; CSF) was “significantly reduces”, the “TNF-a level in CSF” value ([1]; CSF) was “significantly reduces” and the IL-6 [1, 5] was “decrease significantly”. For the same compound, the TNF-a [1, 5] was “decrease significantly”, the “CRP of HIV subjects” value ([1]; peripheral blood, lenalidomide 25 mg oral days 1 to 21 of 28-day cycle, after 7 weeks) was “decrease” and the “D-dimer of HIV subjects” value ([1]; peripheral blood, lenalidomide 25 mg oral days 1 to 21 of 28-day cycle, after 12 weeks) was “decrease”. For the same compound, the “CA HIV-RNA” value (HIV reservoir; 13 patients, from the 24th week, more obvious at the 48th week) was “declines obviously”, the “decline of CA RNA” value (HIV reservoir; subjects Nos. 110 and 113) was “exceeds 2 log order of magnitude” and the “survival rate of U1 cells” value (U1 cells) was “less affected”. For the same compound, the “P24 content in supernatant vs positive control group” value (latent HIV cell line U1; LPS 10 μg/ml) was “significantly lower”, the “P24 content in supernatant vs positive control group” value (latent HIV cell line U1; PMA 20 nmol/L 24 hrs) was “decline” and the “P24 content in supernatant vs positive control group” value (latent HIV cell line U1; TNF-α 20 μg/ml) was “significantly lower”. For the same compound, the “expression level of multi-spliced RNA” value ([2]; then LPS) was “significantly inhibits”, the “expression level of non-spliced RNA” value ([2]; then LPS) was “significantly inhibits” and the “expression level of single-spliced RNA” value ([2]; then LPS) was “significantly inhibits”. The “mRNA level of Gag” value ([2]; then LPS 10 μg/ml 24 hrs) was “basically inhibited”, the “mRNA level of Rev protein” value ([2]; then LPS 10 μg/ml 24 hrs) was “basically inhibited” and the “expression of intracellular antigen P24” value ([3]; 5 days with lenalidomide and LPS, positive control 9.76%, DMSO control 0.73%) was 4.15%. The “decrease of average amount of CA HIV-1 RNA vs positive control group” value ([3]; five samples, RT-PCR) was 0.49 time, the IL-6 in supernatant [4] was “decrease significantly” and the IL-10 in supernatant [4] was “increases significantly”. The TNF-α in supernatant [4] was “decrease significantly”, the “J-lat10.6 GFP” value (J-lat10.6 cells) was 24.21% and the “GFP activation of C11 cells” value (C11 cells) was 8.09%.
